Laboratory results published in PMC13181761, “New Analogs of the Compstatin Family of Clinical Complement Inhibitors with Low Picomolar Target Affinity” (Journal of Medicinal Chemistry, 2026).
Where “and” joins values, the source holds several entries; their conditions need not be identical. Identical values can stand only once. Like-named read-outs stand apart in the source and are kept apart here. Where a SMILES comes first, the peptide text is derived from it. Bridges are numbered along the chain shown (N, C = ends). [ ]: non-standard residue; d: D form. Trp(1-Me) = Cn1cc(C[C@H](N)C(=O)O)c2ccccc21; Nva(3-Et) = CCC(CC)[C@H](N)C(=O)O; NMeI = CC[C@H](C)[C@H](NC)C(=O)O; aIle = CC[C@@H](C)[C@H](N)C(=O)O; Sar = CNCC(=O)O

Assays:
[1] = system: alternative pathway complement activation; assay: Alternative pathway (AP) complement activation ELISA in normal human serum; assay type: biochemical; settings: diluted human serum (figure legends 1%; method 10% NHS)
Method: The inhibitory activity of selected peptides in preventing pathway-specific complement activation was evaluated using ELISA as previously described. All assays used normal human serum (NHS), pooled from five unrelated, anonymized healthy donors, obtained with informed consent according to the local ethics committee, and following the guidelines of the Declaration of Helsinki (Blutspendezentrum Basel, Switzerland).
The activity of selected peptides in preventing the activation of the alternative pathway was evaluated by analogy to the classical pathway ELISA described above, with some adjustments. Flat-bottom PolySorb 96-well plates (Thermo Fisher) were coated overnight at room temperature with 40 μg/mL lipopolysaccharide from Salmonella enteritidis (Sigma-Aldrich) in 0.1 M sodium carbonate buffer and washed 5 times with PBS-T. Serial dilutions of peptides were prepared in 10% (v/v) pooled NHS using HBBT + assay buffer (10 mM HEPES, 150 mM NaCl, pH 7.4, 0.5% BSA, 5 mM EGTA, 5 mM MgCl2, and 0.1% Tween-20), with samples diluted in 10% (v/v) NHS. Negative controls included each inhibitor in assay buffer alone, assay buffer only, and 10% (v/v) serum with 10 mM EDTA. HBBT+ with 10% (v/v) pooled NHS served as the 100%-control. Subsequent steps were performed as described above.

[2] = system: classical pathway complement activation; assay: Classical pathway (CP) complement activation ELISA in normal human serum; assay type: biochemical
Method: The inhibitory activity of selected peptides in preventing pathway-specific complement activation was evaluated using ELISA as previously described. All assays used normal human serum (NHS), pooled from five unrelated, anonymized healthy donors, obtained with informed consent according to the local ethics committee, and following the guidelines of the Declaration of Helsinki (Blutspendezentrum Basel, Switzerland). To assess classical pathway activity, flat-bottom MaxiSorp 96-well plates (Thermo Fisher) were coated overnight at room temperature with 33 μg/mL IgM (Sigma) in a 0.1 M sodium carbonate buffer. Plates were washed 5 times with phosphate-buffered saline (Dubleccòs, Bioconcept) supplemented with 0.05% Tween-20 (PBS-T). Serial dilutions of peptides were prepared in 1% (v/v) NHS using HBBT++ assay buffer (10 mM HEPES, 150 mM NaCl, pH 7.4, 0.5% BSA, 0.15 mM CaCl2, 0.5 mM MgCl2, 0.1% Tween-20), with samples diluted in 1% (v/v) NHS. Negative controls included each inhibitor in assay buffer alone, assay buffer only, and 1% (v/v) NHS with 10 mM EDTA. HBBT++ with 1% (v/v) pooled NHS served as the 100%-control. After incubating for 1 h at 37 °C and shaking at 700 rpm, plates were washed 5 times with PBS-T. Next, 100 μL of biotinylated monoclonal mouse antihuman TCC antibody (1:1000, Hycult, clone: aE11) to detect terminal complement complexes was added to each well, followed by 1 h incubation at room temperature while shaking. After another 5 washes with PBS-T, 100 μL of HRP-conjugated NeutrAvidin (1:10,000, Invitrogen) was added to each well and incubated for 20 min at room temperature while shaking. Plates were washed 5 more times with PBS-T before adding 100 μL of 1-Step Turbo TMB-ELISA solution (Thermo Scientific) to each well. The reaction was allowed to develop until a light blue color appeared, and then stopped with 100 μL of 2 M sulfuric acid. Colorimetric detection was performed at 450 nm by using a plate reader (Synergy HT, Biotek). All assays were conducted in triplicate and normalized against 100% (no inhibitor, 1% (v/v) serum in buffer) and 0% (1% (v/v) serum in EDTA buffer) controls. In the cases of Cp60 and Cp40, 5% (v/v) NHS was used instead of 1% (v/v) NHS in some assays. Inhibition curves were fitted using nonlinear regression to a normalized variable slope model in Prism (v9-10, GraphPad).

human C3b = target: T1, human C3b (Homo sapiens, UniProt P01024); assay: SPR kinetic binding to immobilized human C3b; settings: for koff: read-out: dissociation rate k d
T1 construct: purchased Complement Technology, Tyler, TX, USA
T1 sequence (P01024 23-667 limits assumed): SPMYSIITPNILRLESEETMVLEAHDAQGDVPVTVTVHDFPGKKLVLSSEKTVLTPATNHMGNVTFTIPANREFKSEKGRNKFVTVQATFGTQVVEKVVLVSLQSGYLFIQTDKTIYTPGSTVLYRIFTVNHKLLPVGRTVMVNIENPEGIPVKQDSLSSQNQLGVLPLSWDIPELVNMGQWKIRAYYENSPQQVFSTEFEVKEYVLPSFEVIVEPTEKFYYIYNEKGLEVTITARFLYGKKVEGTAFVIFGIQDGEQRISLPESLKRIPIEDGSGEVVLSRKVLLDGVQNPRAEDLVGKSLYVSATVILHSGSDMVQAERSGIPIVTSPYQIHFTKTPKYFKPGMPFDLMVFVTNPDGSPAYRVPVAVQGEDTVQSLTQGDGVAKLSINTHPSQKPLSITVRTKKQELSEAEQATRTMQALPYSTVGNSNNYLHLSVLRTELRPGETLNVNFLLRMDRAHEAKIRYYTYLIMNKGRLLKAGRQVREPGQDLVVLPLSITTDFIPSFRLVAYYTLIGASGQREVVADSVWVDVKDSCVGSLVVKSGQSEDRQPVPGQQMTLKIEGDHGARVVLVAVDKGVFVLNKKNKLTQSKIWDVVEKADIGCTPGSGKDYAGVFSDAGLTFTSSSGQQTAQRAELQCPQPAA
T1 sequence (P01024 749-1663 partner limits assumed): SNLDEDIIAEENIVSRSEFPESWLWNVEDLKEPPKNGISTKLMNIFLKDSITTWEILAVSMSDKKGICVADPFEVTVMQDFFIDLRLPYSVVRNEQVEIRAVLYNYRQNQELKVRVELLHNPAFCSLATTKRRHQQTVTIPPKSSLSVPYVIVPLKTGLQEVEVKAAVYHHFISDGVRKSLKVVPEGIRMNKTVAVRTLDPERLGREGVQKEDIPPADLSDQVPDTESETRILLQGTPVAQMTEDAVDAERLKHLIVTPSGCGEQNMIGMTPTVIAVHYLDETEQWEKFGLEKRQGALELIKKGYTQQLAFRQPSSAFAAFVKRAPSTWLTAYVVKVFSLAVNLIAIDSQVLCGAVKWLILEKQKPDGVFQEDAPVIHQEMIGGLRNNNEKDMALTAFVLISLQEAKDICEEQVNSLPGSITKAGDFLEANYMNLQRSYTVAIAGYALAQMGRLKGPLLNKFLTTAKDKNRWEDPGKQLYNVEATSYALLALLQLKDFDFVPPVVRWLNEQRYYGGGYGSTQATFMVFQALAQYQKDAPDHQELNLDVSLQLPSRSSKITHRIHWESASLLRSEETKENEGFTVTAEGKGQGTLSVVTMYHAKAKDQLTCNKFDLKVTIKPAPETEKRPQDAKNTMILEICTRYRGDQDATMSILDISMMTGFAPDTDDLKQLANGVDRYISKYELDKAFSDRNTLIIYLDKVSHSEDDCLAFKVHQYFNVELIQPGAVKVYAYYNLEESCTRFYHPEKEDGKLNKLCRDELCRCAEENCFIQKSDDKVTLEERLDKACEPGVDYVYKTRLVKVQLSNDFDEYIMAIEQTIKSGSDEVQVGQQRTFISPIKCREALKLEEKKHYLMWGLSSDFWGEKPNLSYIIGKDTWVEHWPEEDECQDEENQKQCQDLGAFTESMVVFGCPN
Method: Experiments were conducted at 25 °C in HBST buffer (10 mM HEPES, 150 mM NaCl, and 0.05% Tween-20, pH 7.4; XanTec bioanalytics). Human C3b (Complement Technology, Tyler, TX, USA) was immobilized via amine-reactive coupling. […] Individual peptide samples were injected for 120 s, followed by a 180 s dissociation phase. […] Signals from the reference cell and buffer blank injections were subtracted within each dilution series to correct for buffer effects and injection artifacts. Data were fitted to a Langmuir 1:1 binding model to calculate association (k a) and dissociation (k d) rate constants, and the equilibration constant K D is calculated based on the equation: K D = k d/k a. In the case of Cp40 derivatives and Cp60, a single-cycle approach was used for kinetic analysis by injecting 5 increasing concentrations of each compound (0.5-40 nM) consecutively without a regeneration period in between injections. Individual injections within a cycle were 120 s long with a 5 min dissociation phase between injections. […] Analog Cp40 was included in each experimental series as a reference and internal control. Signals from the reference cell and buffer blank injections were subtracted to correct for buffer effects and injection artifacts. Kinetic data were processed in BiaEvaluation (Cytiva) using single-cycle evaluation by global fitting each data set to a Langmuir 1:1 binding model. The reported kinetic parameters (Tables and ) indicate the mean values and standard deviations of three independent experiments. SPR sensorgrams are provided in the Supporting Information.

[3] = cynomolgus monkey, in vivo, 2 mg/kg
[4] = cynomolgus monkey, in vivo, sc, 2 mg/kg
[5] = SPR screening at 2 and 1 μM, series up to 16 μM, read-out: affinity hC3b (class symbol N.B./W.B.)
[6] = SPR, 1:1 Langmuir fit, average of 3 independent experiments, SD in brackets, read-out: K D, affinity hC3b
[7] = SPR, 1:1 Langmuir fit, average of 3 independent experiments, SD in brackets

CC[C@H](C)[C@H](NC(C)=O)C(=O)N[C@H]1CSSC[C@@H](C(=O)N[C@H](C(N)=O)[C@@H](C)O)NC(=O)[C@H](CCCN=C(N)N)NC(=O)[C@H](Cc2c[nH]cn2)NC(=O)[C@H](C)NC(=O)CNC(=O)[C@H](Cc2c[nH]c3ccccc23)NC(=O)[C@H](CC(=O)O)NC(=O)[C@H](CCC(N)=O)NC(=O)[C@H](Cc2c[nH]c3ccccc23)NC(=O)[C@H](C(C)C)NC1=O [Cp01, reference compound]
IC50 [1]: 1400 nM
IC50 ([2]; CP ELISA, 1% diluted normal human serum): 20000 nM

CC[C@H](C)[C@H](NC(C)=O)C(=O)N[C@H]1CSSC[C@@H](C(=O)N[C@H](C(N)=O)[C@@H](C)O)NC(=O)[C@H](CCCNC(=N)N)NC(=O)[C@H](Cc2c[nH]cn2)NC(=O)[C@H](C)NC(=O)CNC(=O)[C@H](Cc2c[nH]c3ccccc23)NC(=O)[C@H](CC(=O)O)NC(=O)[C@H](CCC(N)=O)NC(=O)[C@H](Cc2c[nH]c3ccccc23)NC(=O)[C@H](Cc2ccccc2)NC1=O [Cp01-Val3Phe]
Kd (human C3b; [5]): > 2000 nM

CC[C@H](C)[C@H](NC(C)=O)C(=O)N[C@H]1CSSC[C@@H](C(=O)N[C@H](C(N)=O)[C@@H](C)O)NC(=O)[C@H](CCCNC(=N)N)NC(=O)[C@H](Cc2c[nH]cn2)NC(=O)[C@H](C)NC(=O)CNC(=O)[C@H](Cc2c[nH]c3ccccc23)NC(=O)[C@H](CC(=O)O)NC(=O)[C@H](CCC(N)=O)NC(=O)[C@H](Cc2c[nH]c3ccccc23)NC(=O)[C@H](Cc2c[nH]c3ccccc23)NC1=O [Cp01-Val3Trp]
Kd (human C3b; [5]): > 2000 nM

CC[C@H](C)[C@H](NC(C)=O)C(=O)N[C@H]1CSSC[C@@H](C(=O)N[C@H](C(N)=O)[C@@H](C)O)NC(=O)[C@H](CCCNC(=N)N)NC(=O)[C@H](Cc2c[nH]cn2)NC(=O)[C@H](C)NC(=O)CNC(=O)[C@H](Cc2c[nH]c3ccccc23)NC(=O)[C@H](CC(=O)O)NC(=O)[C@H](CCC(N)=O)NC(=O)[C@H](Cc2cn(C)c3ccccc23)NC(=O)[C@H]([C@@H](C)CC)NC1=O [Cp05-Val3Ile] (Ac-ICI[Trp(1-Me)]QDWGAHRCT-NH2; disulfide 2-12)
Kd (human C3b; [6]): 1.5 nM
koff (human C3b; SPR): 0.002 s⁻¹

CCC(CC)[C@@H]1NC(=O)[C@@H](NC(=O)[C@@H](NC(=O)[C@H](N)Cc2ccc(O)cc2)[C@@H](C)CC)CSSC[C@@H](C(=O)N(C)[C@H](C(N)=O)[C@@H](C)CC)NC(=O)[C@H](CCCNC(=N)N)NC(=O)[C@H](Cc2c[nH]cn2)NC(=O)[C@H](C)NC(=O)CN(C)C(=O)[C@H](Cc2c[nH]c3ccccc23)NC(=O)[C@H](CC(=O)O)NC(=O)[C@H](CCC(N)=O)NC(=O)[C@H](Cc2cn(C)c3ccccc23)NC1=O [Cp40-Val3Dea] (H-[dY]IC[Nva(3-Et)][Trp(1-Me)]QDW[Sar]AHRC[NMeI]-NH2; disulfide 3-13)
k a, affinity hC3b (human C3b; [7]): 4.3(0.7) 10^5 M^–1 s^–1
k d, affinity hC3b (human C3b; [7]): 0.6(0.1) 10^–2 s^–1

CC[C@@H](C)[C@@H]1NC(=O)[C@@H](NC(=O)[C@@H](NC(=O)[C@H](N)Cc2ccc(O)cc2)[C@@H](C)CC)CSSC[C@@H](C(=O)N(C)[C@H](C(N)=O)[C@@H](C)CC)NC(=O)[C@H](CCCNC(=N)N)NC(=O)[C@H](Cc2c[nH]cn2)NC(=O)[C@H](C)NC(=O)CN(C)C(=O)[C@H](Cc2c[nH]c3ccccc23)NC(=O)[C@H](CC(=O)O)NC(=O)[C@H](CCC(N)=O)NC(=O)[C@H](Cc2cn(C)c3ccccc23)NC1=O [Cp40-Val3aIle] (H-[dY]IC[aIle][Trp(1-Me)]QDW[Sar]AHRC[NMeI]-NH2; disulfide 3-13)
k a, affinity hC3b (human C3b; [7]): 4.6(0.7) 10^5 M^–1 s^–1
k d, affinity hC3b (human C3b; [7]): 0.7(0.3) 10^–2 s^–1
Kd (human C3b; [6]): 15.6 nM

CC[C@H](C)[C@H](NC(=O)[C@H](N)Cc1ccc(O)cc1)C(=O)N[C@H]1CSSC[C@@H](C(=O)N(C)[C@H](C(=O)N[C@@H](CCCCN)C(=O)N[C@@H](CCCCN)C(N)=O)[C@@H](C)CC)NC(=O)[C@H](CCCNC(=N)N)NC(=O)[C@H](Cc2c[nH]cn2)NC(=O)[C@H](C)NC(=O)CN(C)C(=O)[C@H](Cc2c[nH]c3ccccc23)NC(=O)[C@H](CC(=O)O)NC(=O)[C@H](CCC(N)=O)NC(=O)[C@H](Cc2cn(C)c3ccccc23)NC(=O)[C@H]([C@@H](C)CC)NC1=O [Cp60-KK] (H-[dY]ICI[Trp(1-Me)]QDW[Sar]AHRC[NMeI]KK-NH2; disulfide 3-13)
AUC(0-t) ([3]; AUC0–120h, range over both animals): 230 to 400 µM·h
Tmax ([3]; sc): 2 h
AUC(0-t) ([3]; sc, AUC0-120h): 228 µM·h
AUC(0-inf) ([3]; sc, AUC0-∞): 479 µM·h
Cmax ([3]; sc, Cmax): 7.52 µM
half-life ([3]; sc, t 1/2, terminal elimination phase, range over both animals): 30 to 40 h
half-life ([3]; sc, t½): 30.8 h
AUC0-120h [4]: 401 µM·h
AUC0-∞ [4]: 250 µM·h

CC[C@H](C)[C@H](NC(=O)[C@H](N)Cc1ccc(O)cc1)C(=O)N[C@H]1CSSC[C@@H](C(=O)N(C)[C@H](C(N)=O)[C@@H](C)CC)NC(=O)[C@H](CCCNC(=N)N)NC(=O)[C@H](Cc2c[nH]cn2)NC(=O)[C@H](C)NC(=O)CN(C)C(=O)[C@H](Cc2c[nH]c3ccccc23)NC(=O)[C@H](CC(=O)O)NC(=O)[C@H](CCC(N)=O)NC(=O)[C@H](Cc2cn(C)c3ccccc23)NC(=O)[C@H]([C@@H](C)CC)NC1=O [Cp60] (H-[dY]ICI[Trp(1-Me)]QDW[Sar]AHRC[NMeI]-NH2; disulfide 3-13)
fold enhancement in binding affinity of Cp60 over Cp40 (human C3b; K D ratio vs Cp40): > 8 fold and 10 fold
k a, affinity hC3b (human C3b; [7]): 17.6(1.4) 10^5 M^–1 s^–1
k d, affinity hC3b (human C3b; [7]): 0.01 10^–2 s^–1
k d, affinity hC3b (human C3b; SPR, 1:1 Langmuir fit, average of 3 independent experiments, SD in brackets, listed as Cp40 Ile): 0.01(0.0) 10^–2 s^–1
target residence (τ) (human C3b; SPR, C3b): exceeding 100 min
koff (human C3b; SPR): 0.0001 s⁻¹
CP inhibition compared with Cp40 ([2]; CP ELISA, 1% human serum): did not show improved CP inhibition
IC50 ([2]; CP ELISA, 5% human serum): 97 nM
fold enhancement in inhibitory potency of Cp60 over Cp40 ([2]; IC50 ratio vs Cp40): < 2 fold
